Measured values reported in BindingDB's records for doi:10.1021/bi020016x (Weizmann Institute of Science, 2002).

Tests used:
Acetylcholinesterase [1] = target: Acetylcholinesterase (Tetronarce californica, UniProt P04058); assay: Enzyme Inhibition Assay; conditions: pH 7.5; 25 °C
Description: (§1) The cholinesterase assays were performed using colorimetric method reported by Ellman. Enzyme activity was determined by measuring the absorbance at 412 nm for 2 min, relative to the drug-free control. Triplicate measurements were carried out at a total of 8 drug concentrations. The IC50 values were determined from a plot of percentage of inhibition vs -log [drug].

Acetylcholinesterase [2] = target: Acetylcholinesterase (Homo sapiens, UniProt P22303); assay: Enzyme Inhibition Assay; conditions: pH 7.5; 25 °C
Description: as §1

Acetylcholinesterase (Homo sapiens, UniProt P22303), sequence (P22303 whole entry): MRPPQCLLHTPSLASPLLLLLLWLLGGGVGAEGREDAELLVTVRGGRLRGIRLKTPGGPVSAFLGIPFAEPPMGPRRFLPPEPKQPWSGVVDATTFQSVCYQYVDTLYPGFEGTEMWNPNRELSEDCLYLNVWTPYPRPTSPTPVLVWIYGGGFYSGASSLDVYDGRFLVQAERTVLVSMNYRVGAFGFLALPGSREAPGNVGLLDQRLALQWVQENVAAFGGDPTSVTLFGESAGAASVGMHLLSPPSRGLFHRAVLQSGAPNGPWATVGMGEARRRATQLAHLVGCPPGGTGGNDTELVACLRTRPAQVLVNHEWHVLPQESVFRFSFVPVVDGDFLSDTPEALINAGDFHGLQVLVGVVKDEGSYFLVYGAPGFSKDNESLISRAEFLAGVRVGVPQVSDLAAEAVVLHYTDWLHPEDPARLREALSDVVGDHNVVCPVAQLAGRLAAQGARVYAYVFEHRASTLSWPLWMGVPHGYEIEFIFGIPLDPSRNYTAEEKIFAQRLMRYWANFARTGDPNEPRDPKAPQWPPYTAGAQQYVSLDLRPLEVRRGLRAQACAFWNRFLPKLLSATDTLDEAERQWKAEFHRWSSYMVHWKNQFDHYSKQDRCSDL
Acetylcholinesterase (Tetronarce californica, UniProt P04058), sequence (P04058 whole entry): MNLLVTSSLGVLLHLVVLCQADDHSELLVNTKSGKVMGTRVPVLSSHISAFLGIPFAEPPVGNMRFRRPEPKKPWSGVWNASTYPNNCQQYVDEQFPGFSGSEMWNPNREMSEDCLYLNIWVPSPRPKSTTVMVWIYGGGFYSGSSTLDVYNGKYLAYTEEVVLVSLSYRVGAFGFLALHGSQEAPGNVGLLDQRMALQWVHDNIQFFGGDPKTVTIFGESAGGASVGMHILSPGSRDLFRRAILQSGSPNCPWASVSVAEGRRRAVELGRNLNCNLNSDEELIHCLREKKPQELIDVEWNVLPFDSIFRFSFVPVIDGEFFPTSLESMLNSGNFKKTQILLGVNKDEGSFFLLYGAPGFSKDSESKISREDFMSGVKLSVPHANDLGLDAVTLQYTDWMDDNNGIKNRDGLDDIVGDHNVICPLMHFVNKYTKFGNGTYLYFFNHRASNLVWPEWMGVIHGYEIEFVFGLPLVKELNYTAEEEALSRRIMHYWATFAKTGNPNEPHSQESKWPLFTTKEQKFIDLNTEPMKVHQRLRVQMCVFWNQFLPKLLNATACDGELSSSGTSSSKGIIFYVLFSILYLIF

C[C@@H](c1cccc(O)c1)N(C)C [3-[1-(dimethylamino)ethyl]phenol]
Ki (Acetylcholinesterase [1]): 0.7 µM | Ki (Acetylcholinesterase [2]): 33 µM
